In one assay the target is T1, B1R (Homo sapiens, UniProt P46663).
T1 construct: Thermo Fisher Scientific (T-REx 293 cells)
T1 sequence (P46663 1-353): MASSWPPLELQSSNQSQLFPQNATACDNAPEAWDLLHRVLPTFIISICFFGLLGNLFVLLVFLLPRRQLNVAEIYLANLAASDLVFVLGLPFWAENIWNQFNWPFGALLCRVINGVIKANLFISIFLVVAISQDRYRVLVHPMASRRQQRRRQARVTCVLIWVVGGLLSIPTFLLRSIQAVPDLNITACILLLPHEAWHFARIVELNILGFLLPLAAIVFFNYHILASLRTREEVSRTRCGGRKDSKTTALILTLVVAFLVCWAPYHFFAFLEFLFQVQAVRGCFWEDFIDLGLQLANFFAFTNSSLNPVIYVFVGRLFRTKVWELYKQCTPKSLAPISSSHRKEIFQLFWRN
Put plainly: IP-one (intracellular IP1) assay in T-REx 293/B1R cell line. It counts as cell-based. The method, then:
Cell culture and transfection.
(§1) The cell pellet was suspended in Hanks-HEPES (130 mM NaCl, 5.4 mM KCl, 1.8 mM CaCl2, 0.8 mM MgSO4, 0.9 mM NaH2PO4, 20 mM HEPES, LiCl 50 mM, and 3.25 mM glucose; pH 7.4).
Data were analyzed using GraphPad Prism version 5.04 for Windows (GraphPad software).

Another assay has as its system H4 cells. The experiment in a line: MTT cytotoxicity assay, H4 cells. In kind it is cell-based, human. As to conditions: 24 h treatment, mean ± SEM, n = 3 wells per experiment, 2–3 independent experiments. Here is the method:
(§2) Cisplatin, a cytostatic drug commonly used for cancer chemotherapy, was used as a reference compound.
(§3) The colorimetric tetrazolium salt assay with 3-([…]-2-yl)-2,5-diphenyltetrazolium bromide (MTT) was used to evaluate the cytotoxicity potential of the antagonists BK in the cancer cell lines H4, U87-MG, and SHP-77 (see Supporting Information for details)[52].
(§4) Cell lines were seeded at a concentration of 5000 cells/well (H4) and 10000 cells/well (U87-MG, SHP-77) in 96-well plates and incubated for 24 hours. […] These compounds were dissolved in redistilled water and added to the cultures at a final concentration of 0.1%. Twenty-four hours after treatment with the drugs, the MTT assay was performed according to the procedure described previously.^52 MTT solution was added to each well (at a final concentration of 0.15 mg/mL) and then incubated at 37°C for 30 minutes. Formosan crystals were resolved and measured at 570 nm using a 96-well microplate reader (Thermo Lab system Multiscan Spectrum). […] Data were analyzed using GraphPad Prism 7.04 software. Statistical differences were calculated using a one-way analysis of variance (ANOVA) followed by Tukey’s posthoc test. Values of p < 0.05 were considered significant.
Background: Tetrazolium dyes change colour on reduction, which living cells bring about.

The next assay relates to U87-MG cells. The experiment in a line: MTT cytotoxicity assay, U87-MG cells. In kind it is cell-based, human. The note with it: 24 h treatment, mean ± SEM, n = 3 wells per experiment, 2–3 independent experiments. The method, then: as §2, §3, §4
Another assay relates to SHP-77 cells. Put plainly: MTT cytotoxicity assay, SHP-77 cells. The note with it: 24 h treatment, mean ± SEM, n = 3 wells per experiment, 2–3 independent experiments. In kind it is cell-based, human. The method, then:
as §2, §3, §4

Assay [1] deals with caspase-3 and PARP cleavage. The experiment in a line: Western blot of caspase-3 activation and PARP cleavage in U87-MG, SHP-77 and H4 cells. It counts as cell-based, human. The note with it: 24 h. The method, then:
To verify whether the cytotoxic effects of the new B1R antagonists are mediated by apoptosis, the activation level of caspase-3, a key enzyme in the apoptosis process, and PARP protein, the caspase-3 substrate, were determined by Western blot analysis.
Cisplatin at 25 µM was used to induce control apoptosis. No significant change in the amount of cleaved PARP or caspase-3 activation was observed after B1R antagonist treatment compared with untreated cells (Fig. 5).
Figure 5 The effects of B1R antagonists and cisplatin on the expression levels of caspase-3 and PARP cleavage in cell lines U87-MG, SHP-77, and H4 were determined by Western blotting. 1. control cells; 2. cisplatin (25 μM); 3. […] BK11 (50 μM). […] Representative Western blot images showing expression of β-actin were used as a reference protein. Each picture represents a vertically cut part of nitrocellulose membranes. The membranes were cut before antibody application, considering the size margin according to the size of the molecular weight marker.
Western blot analysis was performed to evaluate the potential mechanism of cytotoxic activity of the antagonists of BK in cancer cell lines H4, U87-MG, and SHP-77 (see Supporting Information for details). Detection was performed using Pierce ECL Western blotting substrate (Thermo Fisher Scientific) and a Syngene GeneGnomeXRQ chemiluminescence analysis system. […]

A further assay deals with B1R in U87-MG cell line. The experiment in a line: Functional assay: shift of BK dose-response curve by B1R antagonist, U87-MG cells. It counts as cell-based, human. As to conditions: antagonist 10 µM. From the text: (§5) In further experiments, the U87-MG, SHP-77, and H4 cell lines were used for the functional assay with BK and the reference B1R antagonist. As shown in Fig. 13S in Supplementary File, all three cell lines expressed the functional B1R protein and its activity according to the mRNA level shown in Fig. 4. The obtained results are consistent with previous findings showing the expression of functional B1R and B2R genes and proteins in human glioblastoma cells U87-MG[32],[33]. In other studies, cellular expression of B1 and B2 receptors was detected in five different subtypes of human lung carcinomas (adenocarcinoma, squamous cell carcinoma, large cell carcinoma, small cell carcinoma, and carcinoid tumors)[34]. In addition, B2R has also been characterized in the cell line SHP-77[35]. However, to our knowledge, this is the first time that we have detected B1R and B2R gene expression in H4 cells of human brain neuroglioma and B1R in SHP-77 cells of human lung carcinoma.
(§6) Figure 13S. […] All three cell lines expressed the functional protein B1R.

The test system of a further assay is B1R in SHP-77 cell line. The experiment in a line: Functional assay: shift of BK dose-response curve by B1R antagonist, SHP-77 cells. In kind it is cell-based, human. As to conditions: antagonist 10 µM.
From the text: as §5, §6

For another assay, the system named is B1R in H4 cell line. The experiment in a line: Functional assay: shift of BK dose-response curve by B1R antagonist, H4 cells. As to conditions: antagonist 10 µM. It counts as cell-based, human.
From the text: as §5, §6

The subject of the next assay is mock T-REx 293 cell line. Put plainly: IP1 assay in mock T-REx 293 cells without transfection of bradykinin receptors. It counts as cell-based, human. The note with it: various doses of BK. Here is the method:
as §1

Read-outs that look alike come from different tables or passages of the source. Non-standard residues stand in square brackets, D forms with d. Residues, ends and D or L forms follow the SMILES beside them. No end group written: not given here. d2Nal = N[C@H](Cc1ccc2ccccc2c1)C(=O)O; αMeF = C[C@](N)(Cc1ccccc1)C(=O)O Bounds are passed on as bounds.

For `N=C(N)NCCC[C@H](NC(=O)[C@H](Cc1cccs1)NC(=O)[C@H]1CCCCN1C(=O)[C@H](CO)NC(=O)[C@H](Cc1cccs1)NC(=O)CNC(=O)[C@@H]1C[C@@H](O)CN1C(=O)[C@@H]1CCCN1C(=O)[C@H](CCCNC(=N)N)NC(=O)[C@@H](CCCNC(=N)N)NC(=O)CC12CC3CC(CC(C3)C1)C2)C(=O)O` [BK11], on B1R (T-REx 293/B1R cells, 25 μM analog with BK at EC80), the “B1R screening, effect in the presence of BK (antagonist mode)” value is “antagonistic effect”. The “MTT, percentage of control, H4” value in the assay with H4 cells (25 µM) is 94.235 ± 3.538 % of control; in the assay on H4 cells (100 µM) it was 65.668 ± 3.305 % of control. Besides, the entries for the “MTT, percentage of control, U87-MG” value in the assay on U87-MG cells (25 µM) and with U87-MG cells (100 µM) were 96.125 ± 1.241 % of control and 81.07 ± 4.542 % of control, respectively. Also, the figures for the “MTT, percentage of control, SHP-77” value in the assay on SHP-77 cells (25 µM) and in the assay with SHP-77 cells (100 µM) were 96.421 ± 3.474 % of control and 85.391 ± 5.646 % of control, respectively. The “caspase-3 activation and PARP cleavage (Western blot)” value in [1] (50 μM, compared with untreated control cells) was “no induction of caspase-3 and PARP”.
Usually EC50 stands for the midpoint of the concentration-response curve. Take `CC[C@H](C)[C@H](NC(=O)[C@@H](Cc1ccc2ccccc2c1)NC(=O)[C@H](CO)NC(=O)[C@](C)(Cc1ccccc1)NC(=O)CNC(=O)[C@@H]1CCCN1C(=O)[C@@H]1CCCN1C(=O)[C@H](CCCNC(=N)N)NC(=O)[C@H](CCCCN)NC(C)=O)C(=O)O` [R 892] (Ac-KRPPG[αMeF]S[d2Nal]I-OH; N-terminus and C-terminus assumed): the EC50 on B1R (T-REx 293/B1R cells, in the presence of EC80 BK (1250 nM), SD ± 66 nM, read-out: EC50 value for decrease of IP1 levels (B1R antagonist)) worked out at 69 nM. In addition, the “shift of BK EC50 after treatment with the B1R antagonist” value in the assay on B1R in U87-MG cell line is recorded as “over 3 times”; in the assay with B1R in SHP-77 cell line, 2,5 x; with B1R in H4 cell line, less than 2 x.
Regarding `N.N.[Cl][Pt][Cl]` [Cisplatin], the “MTT, percentage of control, H4” value in the assay on H4 cells (25 µM) is reported as 25.389 ± 3.71 % of control; with H4 cells (100 µM), 5.809 ± 1.488 % of control. For the same compound, the “MTT, percentage of control, U87-MG” value in the assay on U87-MG cells (25 µM) is recorded as 50.357 ± 4.97 % of control; in the assay with U87-MG cells (100 µM) it was 32.63 ± 6.934 % of control. For the same compound, the figures for the “MTT, percentage of control, SHP-77” value with SHP-77 cells (25 µM) and in the assay with SHP-77 cells (100 µM) were 53.631 ± 12.052 % of control and 37.989 ± 11.626 % of control, respectively. Also, the “caspase-3 activation and PARP cleavage (Western blot)” value in assay [1] (25 μM, positive control of apoptosis) was “induction of caspase-3 and processed PARP fragments”.
In the case of RPPGFSPFR-OH [BK, Bradykinin], the “response in IP1 assay, mock cells” value with mock T-REx 293 cell line is listed as “did not respond”.
The compound RPPGFSPFR [BK, Bradykinin] returned an EC50 at B1R of 1300 nM.

Values taken from paper PMC9643506 (Scientific Reports, 2022).
